Laboratory results published in US10301690B2, “Streptomyces filamentosus variant and method for producing daptomycin using same” (priority 2013, dated 2019).

System: Staphylococcus aureus
Test: Agar-well method: growth inhibition of the indicator strain
Type: cell-based
Details: 130 μl in agar well, read-out: Radius of inhibition zone
Method: A parent strain, streptomyces filamentosus ATCC 31568 was cultured by slant culture at 30° C. for 12 days to collect spores, and then the spores were suspended in a physiological saline, followed by serial dilution of 10^−2, 10^−3, and 10^−4, and plating on plate media. After pre-incubation at 30° C. for 2 hours, the plates were irradiated for 118 seconds in a glove box placed at a distance of 65 cm from two 20 W UV bulbs of 280 nm wavelength. In this regard, the death rate was 99.9%. […] Colonies that survived on the agar plates at 30° C. for 6 days were collected, followed by seed culture and fermentation culture according to a method of the following Example 4. Fermentation was performed using a 500 ml-baffled flask in a shaking incubator under conditions of 30° C., 260 rpm for 7 days.
After completion of the culture, the culture broth was centrifuged. An agar-well method which is a biological detection method was used in order to examine growth inhibition of an indicator strain, Staphylococcus aureus. The agar-well method was applied to the analysis, because this method is an easy and simple method with lower errors, compared to other methods. This method is based on a principle that a diffusion rate is determined by a difference in a concentration gradient upon diffusion of a sample on an agar gel, and the radius of inhibition zone for a predetermined time is known to be proportional to the log of the concentration value. Based on this principle, antibiotic concentrations in unknown samples can be measured. This method was performed by the following procedure: before a trypticase soy broth agar medium solidified, the indicator strain Staphylococcus aureus was added thereto and uniformly suspended therein. The medium was poured into a […] and allowed to solidify. Next, wells were punched into the agar using a stainless steel borer having a diameter of 5 mm, and agar in the well was suctioned by vacuum aspiration. The amount of the sample in the agar well was 130 μl, and a control group daptomycin was prepared and used in an amount of 0, 50, 100, 200, 300, and 1000 μg/ml.

## CCCCCCCCCC(=O)N[C@@H](Cc1c[nH]c2ccccc12)C(=O)N[C@H](CC(N)=O)C(=O)N[C@@H](CC(=O)O)C(=O)N[C@@H]1C(=O)NCC(=O)N[C@@H](CCCN)C(=O)N[C@@H](CC(=O)O)C(=O)N[C@H](C)C(=O)N[C@@H](CC(=O)O)C(=O)NCC(=O)N[C@H](CO)C(=O)N[C@@H]([C@H](C)CC(=O)O)C(=O)N[C@@H](CC(=O)c2ccccc2N)C(=O)O[C@@H]1C [Daptomycin, daptomycin]
Daptomycin control 0.05 mg/ml
  zone of inhibition at 50 µg/mL: 8.6 mm
Daptomycin control 0.10 mg/ml
  zone of inhibition at 100 µg/mL: 10.6 mm
Daptomycin control 0.20 mg/ml
  zone of inhibition at 200 µg/mL: 12 mm
Daptomycin control 0.30 mg/ml
  zone of inhibition at 300 µg/mL: 13.2 mm
Daptomycin control 1.00 mg/ml
  zone of inhibition at 1000 µg/mL: 16 mm
